Measured values taken from patent US7071169B2, “Pyrane derivatives as both ACE-and NEP-inhibitors” (Novartis AG, priority 2001, dated 2006).
Values belong to the compound of their own block, whether it stands above or below them. Bridges are numbered along the chain shown (N, C = ends). Where no end group is shown, it is not given here.

Experiments:
NEP (EC 3.4.24.11) = target: T1, NEP (EC 3.4.24.11) (Rattus norvegicus, UniProt P07861); assay: in vitro inhibition of NEP (hydrolysis of glutaryl-Ala-Ala-Phe-2-naphthylamide, GAAP assay); assay type: biochemical; conditions: rat kidney cortex membranes
T1 construct: rat kidney cortex membranes prepared by method of Maeda et al. (1983); from tissue; host or cells: rat kidney cortex membranes
T1 sequence (P07861 1-750): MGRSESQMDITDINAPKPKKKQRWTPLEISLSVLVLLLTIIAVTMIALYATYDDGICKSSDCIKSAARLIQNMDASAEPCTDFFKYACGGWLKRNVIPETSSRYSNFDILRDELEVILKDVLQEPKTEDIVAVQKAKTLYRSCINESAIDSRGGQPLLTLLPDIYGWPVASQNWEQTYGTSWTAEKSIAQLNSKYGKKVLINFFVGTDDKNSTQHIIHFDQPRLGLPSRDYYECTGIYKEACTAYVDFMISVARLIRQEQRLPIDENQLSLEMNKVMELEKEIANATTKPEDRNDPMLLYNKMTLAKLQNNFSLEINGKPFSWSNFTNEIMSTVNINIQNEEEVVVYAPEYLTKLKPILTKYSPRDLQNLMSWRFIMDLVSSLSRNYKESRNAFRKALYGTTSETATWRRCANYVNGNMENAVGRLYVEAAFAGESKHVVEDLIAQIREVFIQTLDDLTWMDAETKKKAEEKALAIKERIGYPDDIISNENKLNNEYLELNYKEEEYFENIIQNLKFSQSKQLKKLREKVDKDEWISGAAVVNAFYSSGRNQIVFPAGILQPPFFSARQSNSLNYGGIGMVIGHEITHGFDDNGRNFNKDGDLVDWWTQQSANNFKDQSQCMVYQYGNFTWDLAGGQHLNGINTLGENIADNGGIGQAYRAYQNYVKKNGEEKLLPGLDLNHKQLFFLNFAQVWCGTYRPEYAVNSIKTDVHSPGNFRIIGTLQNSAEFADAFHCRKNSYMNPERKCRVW
Method: (§1) In vitro testing is most appropriate for the free carboxylic acids of the invention. The test compound is dissolved in dimethyl sulfoxide, ethanol, or 0.25M sodium bicarbonate solution, and the solution is diluted with buffer to the desired concentration.
The in vitro inhibition of NEP (EC 3.4.24.11) can be determined as follows:
NEP 3.4.24.11 activity is determined by the hydrolysis of the substrate glutaryl-Ala-Ala-Phe-2-naphthylamide […] using a modified procedure of Orlowski and Wilk (1981). The incubation mixture (total volume 125 μL) contains 4.2 μL of protein (rat kidney cortex membranes prepared by method of Maeda et al. (1983), 50 mM tris buffer, pH 7.4 at 25°0 C., 500 μM substrate (final concentration), and leucine aminopeptidase M (2.5 μg). The mixture is incubated for 10 minutes at 25° C., and 100 μL of fast garnet (250 μg fast garnet/mL of 10% Tween 20 in 1M sodium acetate pH 4.2) is added. Enzyme activity is measured spectrophotometrically at 540 nm. One unit of NEP 24.11 activity is defined as 1 nmol of 2-naphthylamine released per minute at 25° C. at pH 7.4. IC50 values are determined, i.e., the concentration of test compound required for 50% inhibition of the release of 2-naphthylamine.

ACE = ACE (Homo sapiens, UniProt P12821); assay: in vitro inhibition of ACE (hippuryl-histidyl-leucine hydrolysis); assay type: biochemical; conditions: ACE in vitro assay
ACE, sequence (P12821 30-1306, species assumed): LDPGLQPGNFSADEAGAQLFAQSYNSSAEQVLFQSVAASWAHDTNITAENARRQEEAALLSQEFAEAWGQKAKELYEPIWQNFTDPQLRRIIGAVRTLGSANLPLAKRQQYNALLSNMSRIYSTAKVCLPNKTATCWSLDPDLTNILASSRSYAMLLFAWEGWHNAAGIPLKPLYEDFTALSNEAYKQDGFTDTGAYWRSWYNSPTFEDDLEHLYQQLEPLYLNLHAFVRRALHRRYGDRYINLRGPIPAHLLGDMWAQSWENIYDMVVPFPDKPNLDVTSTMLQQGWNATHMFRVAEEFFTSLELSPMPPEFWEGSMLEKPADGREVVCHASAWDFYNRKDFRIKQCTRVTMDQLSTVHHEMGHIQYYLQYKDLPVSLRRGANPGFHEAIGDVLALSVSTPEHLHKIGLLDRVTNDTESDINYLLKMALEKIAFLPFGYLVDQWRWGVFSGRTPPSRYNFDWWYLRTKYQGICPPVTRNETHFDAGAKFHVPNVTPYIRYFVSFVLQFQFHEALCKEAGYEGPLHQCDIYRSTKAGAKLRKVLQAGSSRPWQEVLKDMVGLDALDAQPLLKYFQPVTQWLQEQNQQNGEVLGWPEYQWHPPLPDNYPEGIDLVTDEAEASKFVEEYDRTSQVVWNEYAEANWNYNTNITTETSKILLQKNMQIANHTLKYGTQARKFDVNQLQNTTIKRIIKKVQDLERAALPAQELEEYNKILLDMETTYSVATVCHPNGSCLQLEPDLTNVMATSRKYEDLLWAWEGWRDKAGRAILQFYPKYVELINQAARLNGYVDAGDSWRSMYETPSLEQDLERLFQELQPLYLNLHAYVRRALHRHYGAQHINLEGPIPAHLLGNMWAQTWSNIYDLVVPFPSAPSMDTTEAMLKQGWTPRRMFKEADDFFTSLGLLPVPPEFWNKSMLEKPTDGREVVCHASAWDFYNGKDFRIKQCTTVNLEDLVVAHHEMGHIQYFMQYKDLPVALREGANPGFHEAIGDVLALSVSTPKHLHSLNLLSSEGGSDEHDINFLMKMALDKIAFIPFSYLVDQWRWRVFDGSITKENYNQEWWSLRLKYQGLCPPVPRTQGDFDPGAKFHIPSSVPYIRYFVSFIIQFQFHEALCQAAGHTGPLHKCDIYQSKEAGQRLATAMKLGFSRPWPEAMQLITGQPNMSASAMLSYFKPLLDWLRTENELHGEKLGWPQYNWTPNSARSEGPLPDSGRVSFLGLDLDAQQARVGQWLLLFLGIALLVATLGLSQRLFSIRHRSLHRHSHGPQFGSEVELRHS
Method: as §1
The buffer for the ACE assay is 300 mM NaCl, 100 mM KH2PO4 (pH 8.3). The reaction is initiated by the addition of 100 μL of hippuryl-histidyl-leucine (2 mg/mL) to tubes containing enzyme and drug in a volume of 150 μL and tubes are incubated for 30 minutes at 37° C. The reaction is terminated by the addition of 0.75 mL 0.6N NaOH. 100 μL of freshly prepared o-phthalaldehyde solution (2 mg/mL in methanol) is added to the tubes, the contents are mixed and allowed to stand at room temperature. After 10 minutes, 100 μL of 6N HCl is added. The tubes are centrifuged and the supernatant optical density is read at 360 nm. The results are plotted against drug concentration to determine the IC50, i.e., the drug concentration which gives half the activity of the control sample containing no drug.

[1] = target: rabbit antibodies that recognize specifically the carboxyl terminal tryptophan of ET-1; assay: RIA: displacement of [125I]ET-1 binding to anti-ET-1 antibodies; conditions: mean±SEM, n=3–5
Method: Diluted samples ([…]) obtained from the above enzyme assay are incubated at 4° C. overnight with 25 μL each of [^125I]ET-1 (10,000 cpm/tube) and 1:20,000-fold diluted rabbit antibodies that recognize specifically the carboxyl terminal tryptophan of ET-1. Goat anti-rabbit antibodies coupled to magnetic beads (70 μg) are then added to each tube, and the reaction mixture is further incubated for 30 minutes at room temperature. The beads are pelleted using a magnetic rack. The supernatant is decanted, and the radioactivity in the pellet is counted in a gamma counter. Total and non-specific binding are measured in the absence of non-radioactive ET-1 and anti-ET antibodies, respectively.

[2] = system: angiotensin I induced pressor response; assay: inhibition of the angiotensin I induced pressor response in normotensive rats; assay type: in vivo, rat; conditions: 10 mg/kg p.o., for 4 hours
Method: The in vivo test for i.v. administered compounds is performed with male, normotensive rats, which are anesthetized with sodium metofan. A femoral artery and femoral vein are cannulated respectively for direct blood pressure measurement on i.v. administration of angiotensin I and i.v. or p.o. administration of a compound of this invention. After the basal blood pressure is stabilized, pressor responses to 3 challenges of 300 ng/kg angiotensin I i.v., at 15 minute intervals, are obtained. Such pressure responses are usually again obtained at 15, 30, 60 and 90 minutes, and then every hour up to 6 hours after i.v. or p.o. administration of the compound to be tested, and compared with the initial responses. Any observed decrease of said pressor response is an indication of ACE inhibition.

[3] = system: spontaneously hypertensive rat (SHR); assay: antihypertensive activity in conscious spontaneously hypertensive rat (SHR); assay type: in vivo; conditions: 11.6 mg/kg p.o.
From the text: The antihypertensive activity can be determined, e.g., in the spontaneously hypertensive rat (SHR) and the desoxy-corticosterone acetate (DOCA)-salt hypertensive rat, e.g., according to Trapani et al., J. Cardiovasc. Pharmacol., Vol. 14, pp. 419–424 (1989).

- IC50 (NEP (EC 3.4.24.11)): ~4.8 nM
- IC50 (ACE): ~5.9 nM
Compound: COc1ccc(C[C@H](NC(=O)C(C)(C)NC(=O)[C@@H](S)C2CCOCC2)C(=O)O)cc1 [Example 2g, N-[2-[(S)-2-mercapto-2-(4-tetrahydropyranyl)-acetylamino]-2-methylpropionyl]-(L)-4-methoxyphenylalanine]

- IC50 for displacement of [125I]ET-1 binding to the antibodies [1]: 21 ± 2 fmol
Compound: ET-1: non-radioactive ET-1, the peptide formed from big ET-1 by ECE and measured by RIA

Compound: CCOC(=O)[C@H](Cc1ccc(OC)cc1)NC(=O)C(C)(C)NC(=O)[C@@H](SC(C)=O)C1CCOCC1 [Example 1f, N-[2-[(S)-2-acetylthio-2-(4-tetrahydropyranyl)-acetylamino]-2-methylpropionyl]-(L)-4-methoxyphenylalanine ethyl ester]
- inhibition of the angiotensin I induced pressor response [2]: 98%
- reduction of mean arterial pressure [3]: about 16 mm Hg

- IC50 for displacement of [125I]ET-1 binding to the antibodies [1]: 260,000±66,000 fmol
Compound: big ET-1: ECE substrate from which ET-1 is formed; added in the ECE-1 assay (CSCSSLMDKECVYFCHLDIIWVNTPEHVVPYGLGSPRS; disulfide 1-15, 3-11; ends not checked; UniProt P05305 53-90, looked up)
